From PubChem BioAssay AID308 (DTP/NCI, 2004) come the findings set out here.

Where “and” joins values, the source holds several entries; their conditions need not be identical. Equal values may be shown once. Inconclusive results and toxic doses are left out.

The experiment relates to BDF1 mice, L1210 6-MP/6-TG resistant leukemia ip, survival T/C. Description: NCI In Vivo Anticancer Drug Screen. Data for tumor model L1210 Leukemia resistant to 6-MP and 6-Thioguanine; NSC 755, NSC 752 (intraperitoneal) in B6D2F1 (BDF1) mice. The conditions noted are these: endpoint: mean survival time, higher = longer survival. The method, then: The antitumor activity of compounds was measured in mice bearing transplantable tumors. Survival or tumor size were measured and the results are expressed as the measurement made in the treated group (T) divided by the measurement made in the vehicle treated control group (C). The tumor model used in this assay is L1210 Leukemia resistant to 6-MP and 6-Thioguanine; NSC 755, NSC 752 (intraperitoneal) in B6D2F1 (BDF1) mice

Setting [1] is: dose: 200.0 mg/kg/injection, schedule: Q01DX001 (ip), vehicle: carboxymethylcellulose (CMC).
The mark [2] stands for this setting: dose: 400.0 mg/kg/injection, schedule: Q01DX001 (ip), vehicle: carboxymethylcellulose (CMC).
[3] abbreviates: dose: 12.5 mg/kg/injection, schedule: Q01DX Z (ip), vehicle: carboxymethylcellulose (CMC).
Where [4] appears, read: dose: 25.0 mg/kg/injection, schedule: Q01DX Z (ip), vehicle: carboxymethylcellulose (CMC).
The mark [5] stands for this setting: dose: 37.5 mg/kg/injection, schedule: Q01DX Z (ip), vehicle: carboxymethylcellulose (CMC).
[6] abbreviates: dose: 75.0 mg/kg/injection, schedule: Q01DX Z (ip), vehicle: carboxymethylcellulose (CMC).
Setting [7] is: dose: 100.0 mg/kg/injection, schedule: Q01DX Z (ip), vehicle: carboxymethylcellulose (CMC).
[8] abbreviates: dose: 125.0 mg/kg/injection, schedule: Q01DX Z (ip), vehicle: carboxymethylcellulose (CMC).
Setting [9] is: dose: 300.0 mg/kg/injection, schedule: Q01DX Z (ip), vehicle: carboxymethylcellulose (CMC).
[10] abbreviates: dose: 50.0 mg/kg/injection, schedule: Q01DX Z (ip), vehicle: carboxymethylcellulose (CMC).

For `O=P(O)(OCC1OC(n2cnc3c(=S)nc[nH]c32)C(O)C1O)Oc1ccccc1` (configuration not stated), the T/C was 103 % of control under setting [1]; 99 % of control (dose: 300.0 mg/kg/injection, schedule: Q01DX001 (ip), vehicle: carboxymethylcellulose (CMC)); 100 % of control under setting [2]; 103 % of control (dose: 500.0 mg/kg/injection, schedule: Q01DX001 (ip), vehicle: carboxymethylcellulose (CMC)); 94 % of control (dose: 750.0 mg/kg/injection, schedule: Q01DX001 (ip), vehicle: carboxymethylcellulose (CMC)); 86 % of control (dose: 1000.0 mg/kg/injection, schedule: Q01DX001 (ip), vehicle: carboxymethylcellulose (CMC)).

As for `N#CCSc1ncnc2nc[nH]c12`, the T/C is, setting by setting: under setting [3], 86 % of control; under setting [4], 88 % of control; under setting [5], 87 % of control; under setting [6], 90 % of control; under setting [7], 100 % of control.

In the case of `S=c1nc[nH]c2c1ncn2CN1CCCCC1`, under “dose: 50.0 mg/kg/injection, schedule: Q01DX009 (ip), vehicle: other”, the T/C was 94 % of control.

For the molecule `S=c1nc[nH]c2c1ncn2C1CCCCO1` (configuration not stated), the T/C (dose: 16.0 mg/kg/injection, schedule: Q01DX Z (ip), vehicle: carboxymethylcellulose (CMC)) is 104 % of control; the T/C (dose: 31.0 mg/kg/injection, schedule: Q01DX Z (ip), vehicle: carboxymethylcellulose (CMC)) is 104 % of control; the T/C (dose: 62.0 mg/kg/injection, schedule: Q01DX Z (ip), vehicle: carboxymethylcellulose (CMC)) is 107 % of control; the T/C under setting [8] was 96 % of control.

`CC(C)n1cnc2c(=S)nc[nH]c21`: the T/C is 96 % of control (dose: 2.5 mg/kg/injection, schedule: Q01DX015 (ip), vehicle: carboxymethylcellulose (CMC)); 96 % of control (dose: 5.0 mg/kg/injection, schedule: Q01DX015 (ip), vehicle: carboxymethylcellulose (CMC)); 96 % of control (dose: 10.0 mg/kg/injection, schedule: Q01DX015 (ip), vehicle: carboxymethylcellulose (CMC)); 94 % of control (dose: 20.0 mg/kg/injection, schedule: Q01DX015 (ip), vehicle: carboxymethylcellulose (CMC)); 86 % of control and 100 % of control (dose: 42.0 mg/kg/injection, schedule: Q01DX015 (ip), vehicle: carboxymethylcellulose (CMC)); 86 % of control (dose: 63.0 mg/kg/injection, schedule: Q01DX015 (ip), vehicle: carboxymethylcellulose (CMC)). Moreover, the T/C (dose: 95.0 mg/kg/injection, schedule: Q01DX015 (ip), vehicle: carboxymethylcellulose (CMC)) is 86 % of control.

As to `C[C@H]1C(=O)O[C@@H]2CCN3CC=C(COC(=O)[C@](C)(O)[C@@]1(C)O)[C@H]23`, the T/C reads like this: under setting [5], 91 % of control; under setting [6], 110 % of control; (dose: 150.0 mg/kg/injection, schedule: Q01DX Z (ip), vehicle: carboxymethylcellulose (CMC)) 107 % of control; under setting [9], 104 % of control.

As to `c1nc(SC2=NCCN2)c2[nH]cnc2n1`, the T/C is 98 % of control (dose: 6.25 mg/kg/injection, schedule: Q01DX Z (ip), vehicle: saline) and 93 % of control (dose: 12.5 mg/kg/injection, schedule: Q01DX Z (ip), vehicle: saline).

For the molecule `Clc1ncnc2nc[nH]c12`, the T/C by setting is: under setting [3], 97 % of control; under setting [4], 93 % of control; under setting [10], 92 % of control and 104 % of control; under setting [7], 90 % of control; under setting [1], 99 % of control and 104 % of control; (dose: 200.0 mg/kg/injection, schedule: Q01DX Z (ip), vehicle: carboxymethylcellulose (CMC)) 90 % of control. The T/C is 102 % of control and 107 % of control (dose: 267.0 mg/kg/injection, schedule: Q01DX001 (ip), vehicle: carboxymethylcellulose (CMC)); 88 % of control under setting [9]; 100 % of control and 102 % of control under setting [2].

`OCC1OC(n2cnc3c(=S)nc[nH]c32)CC1O` (configuration not stated): the T/C is 98 % of control (dose: 62.0 mg/kg/injection, schedule: Q01DX015 (ip), vehicle: carboxymethylcellulose (CMC)); 96 % of control (dose: 125.0 mg/kg/injection, schedule: Q01DX015 (ip), vehicle: carboxymethylcellulose (CMC)); 93 % of control (dose: 250.0 mg/kg/injection, schedule: Q01DX015 (ip), vehicle: carboxymethylcellulose (CMC)).

With `CC(CCC(C)OS(C)(=O)=O)OS(C)(=O)=O` (configuration not stated), the T/C was 112 % of control under setting [4], 116 % of control under setting [5], 118 % of control under setting [10] and 98 % of control under setting [6].

For `Nc1nc(SCc2ccccc2)c2ncn(C3OC(CO)CC3O)c2n1` (configuration not stated), the T/C by setting is: (dose: 18.75 mg/kg/injection, schedule: Q01DX009 (ip), vehicle: other) 100 % of control; (dose: 37.5 mg/kg/injection, schedule: Q01DX009 (ip), vehicle: other) 97 % of control; (dose: 75.0 mg/kg/injection, schedule: Q01DX009 (ip), vehicle: other) 99 % of control; (dose: 150.0 mg/kg/injection, schedule: Q01DX009 (ip), vehicle: other) 91 % of control.

Take `O=C(Nc1ccc(C2=NCCCN2)cc1)c1ccc(C(=O)Nc2ccc(C3=NCCCN3)cc2)cc1`: the T/C (dose: 0.46 mg/kg/injection, schedule: Q01DX Z (ip), vehicle: carboxymethylcellulose (CMC)) is 106 % of control; the T/C (dose: 1.87 mg/kg/injection, schedule: Q01DX Z (ip), vehicle: carboxymethylcellulose (CMC)) was 178 % of control; the T/C (dose: 3.75 mg/kg/injection, schedule: Q01DX Z (ip), vehicle: carboxymethylcellulose (CMC)) was 154 % of control and 195 % of control; the T/C (dose: 7.5 mg/kg/injection, schedule: Q01DX Z (ip), vehicle: carboxymethylcellulose (CMC)) was 155 % of control; the T/C (dose: 15.0 mg/kg/injection, schedule: Q01DX Z (ip), vehicle: carboxymethylcellulose (CMC)) is 113 % of control.

In the case of `O=CCC(O)C(O)C(O)CO` (configuration not stated), the T/C is 113 % of control (dose: 375.0 mg/kg/injection, schedule: Q01DX Z (ip), vehicle: saline); 113 % of control (dose: 500.0 mg/kg/injection, schedule: Q01DX Z (ip), vehicle: saline); 116 % of control (dose: 750.0 mg/kg/injection, schedule: Q01DX Z (ip), vehicle: saline); 123 % of control (dose: 1000.0 mg/kg/injection, schedule: Q01DX Z (ip), vehicle: saline).

For the molecule `Cc1c(O)ccc(=O)n1O`, the T/C was 108 % of control (dose: 73.0 mg/kg/injection, schedule: Q01DX Z (ip), vehicle: other) and 103 % of control (dose: 165.0 mg/kg/injection, schedule: Q01DX Z (ip), vehicle: other).

As to `[N-]=[N+]=CC(=O)NCC(=O)NN`, the T/C (dose: 62.0 mg/kg/injection, schedule: Q01DX Z (ip), vehicle: saline) is 114 % of control.

As to `Ic1ncnc2nc[nH]c12`, the T/C runs as follows: (dose: 62.5 mg/kg/injection, schedule: Q01DX Z (ip), vehicle: carboxymethylcellulose (CMC)) 88 % of control; under setting [8], 89 % of control; (dose: 250.0 mg/kg/injection, schedule: Q01DX Z (ip), vehicle: carboxymethylcellulose (CMC)) 89 % of control.

On to `Nc1nc(=S)c2ncn(C3OC(COC(=O)c4ccc(Cl)cc4)C(OC(=O)c4ccc(Cl)cc4)C3OC(=O)c3ccc(Cl)cc3)c2[nH]1` (configuration not stated), for which the T/C is 88 % of control (dose: 6.25 mg/kg/injection, schedule: Q01DX015 (ip), vehicle: carboxymethylcellulose (CMC)); 87 % of control (dose: 12.5 mg/kg/injection, schedule: Q01DX015 (ip), vehicle: carboxymethylcellulose (CMC)); 86 % of control (dose: 100.0 mg/kg/injection, schedule: Q01DX015 (ip), vehicle: carboxymethylcellulose (CMC)).
